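Cells were grown in 96-well plates and exposed to each compound for 48 hours at five concentrations; endpoints were interpolated linearly between bracketing concentrations, or set to the highest concentration if not reached. The concentration for 50% growth inhibition is given as GI50. TGI denotes the concentration required for complete inhibition of growth.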
What was measured:
Assay in all cases: NCI anticancer screen, dose series, 48 h
SN12C renal = test system: SN12C renal
SK-MEL-2 melanoma = test system: SK-MEL-2 melanoma
IGROV1 ovarian = test system: IGROV1 ovarian
EKVX NSCLC = test system: EKVX NSCLC
U251 CNS = test system: U251 CNS
SW-620 colon = test system: SW-620 colon
SNB-75 CNS = test system: SNB-75 CNS
KM12 colon = test system: KM12 colon
OVCAR-8 ovarian = test system: OVCAR-8 ovarian
PC-3 prostate = test system: PC-3 prostate
OVCAR-5 ovarian = test system: OVCAR-5 ovarian
LOX IMVI melanoma = test system: LOX IMVI melanoma
SK-MEL-5 melanoma = test system: SK-MEL-5 melanoma
RPMI-8226 leukemia = test system: RPMI-8226 leukemia
BT-549 breast = test system: BT-549 breast
HL-60(TB) leukemia = test system: HL-60(TB) leukemia
HOP-92 NSCLC = test system: HOP-92 NSCLC
OVCAR-3 ovarian = test system: OVCAR-3 ovarian
UO-31 renal = test system: UO-31 renal
SR leukemia = test system: SR leukemia
TK-10 renal = test system: TK-10 renal
A498 renal = test system: A498 renal
NCI-H460 lung = test system: NCI-H460 lung
MDA-MB-435 = test system: MDA-MB-435
CCRF-CEM leukemia = test system: CCRF-CEM leukemia
MDA-MB-231 breast = test system: MDA-MB-231 breast
UACC-62 melanoma = test system: UACC-62 melanoma
786-0 renal = test system: 786-0 renal
MALME-3M melanoma = test system: MALME-3M melanoma
A549 NSCLC = test system: A549 NSCLC
SK-MEL-28 melanoma = test system: SK-MEL-28 melanoma
UACC-257 melanoma = test system: UACC-257 melanoma
K-562 leukemia = test system: K-562 leukemia
T-47D breast = test system: T-47D breast
NCI/ADR-RES ovarian = test system: NCI/ADR-RES ovarian
SNB-19 CNS = test system: SNB-19 CNS
SK-OV-3 ovarian = test system: SK-OV-3 ovarian
NCI-H226 lung = test system: NCI-H226 lung
NCI-H522 lung = test system: NCI-H522 lung
HCC-2998 colon = test system: HCC-2998 colon
SF-539 CNS = test system: SF-539 CNS
DU-145 prostate = test system: DU-145 prostate
HOP-62 NSCLC = test system: HOP-62 NSCLC
MOLT-4 leukemia = test system: MOLT-4 leukemia
SF-295 CNS = test system: SF-295 CNS
HCT-116 colon = test system: HCT-116 colon
MCF7 breast = test system: MCF7 breast
HT29 colon = test system: HT29 colon
SF-268 CNS = test system: SF-268 CNS
M14 melanoma = test system: M14 melanoma
OVCAR-4 ovarian = test system: OVCAR-4 ovarian
HCT-15 colon = test system: HCT-15 colon
RXF 393 renal = test system: RXF 393 renal
NCI-H23 lung = test system: NCI-H23 lung
ACHN renal = test system: ACHN renal
CAKI-1 renal = test system: CAKI-1 renal
HS 578T breast = test system: HS 578T breast
COLO 205 colon = test system: COLO 205 colon

COc1ccc2[nH]c(=O)c(/C=C/C(=O)c3ccccc3OC)cc2c1 was tested, and the GI50 (SN12C renal) was 537 nM, the TGI (SN12C renal) was 10300 nM and the GI50 (SK-MEL-2 melanoma) was 694 nM. It also gave a TGI (SK-MEL-2 melanoma) of 4390 nM, a GI50 (IGROV1 ovarian) of 582 nM and a TGI (IGROV1 ovarian) of 17000 nM. It also gave a GI50 (EKVX NSCLC) of 2050 nM, a TGI (EKVX NSCLC) of 10500 nM and a GI50 (U251 CNS) of 521 nM. For the same compound, the TGI (U251 CNS) was 1700 nM, the GI50 (SW-620 colon) was 335 nM and the TGI (SW-620 colon) was 2240 nM. For the same compound, the GI50 (SNB-75 CNS) was 470 nM, the TGI (SNB-75 CNS) was 14200 nM and the GI50 (KM12 colon) was 321 nM. For the same compound, the TGI (KM12 colon) was 1580 nM, the GI50 (OVCAR-8 ovarian) was 874 nM and the TGI (OVCAR-8 ovarian) was 11600 nM. It also gave a GI50 (PC-3 prostate) of 842 nM, a TGI (PC-3 prostate) of 3750 nM and a GI50 (OVCAR-5 ovarian) of 1970 nM. The TGI (OVCAR-5 ovarian) was 10400 nM, the GI50 (LOX IMVI melanoma) was 379 nM and the TGI (LOX IMVI melanoma) was 1610 nM. It also gave a GI50 (SK-MEL-5 melanoma) of 728 nM, a TGI (SK-MEL-5 melanoma) of 2080 nM and a GI50 (RPMI-8226 leukemia) of 385 nM. It also gave a TGI (RPMI-8226 leukemia) of 2210 nM, a GI50 (BT-549 breast) of 387 nM and a TGI (BT-549 breast) of 2420 nM. The GI50 (HL-60(TB) leukemia) was 206 nM, the TGI (HL-60(TB) leukemia) was 883 nM and the GI50 (HOP-92 NSCLC) was 1570 nM. For the same compound, the TGI (HOP-92 NSCLC) was 6170 nM, the GI50 (OVCAR-3 ovarian) was 359 nM and the TGI (OVCAR-3 ovarian) was 1640 nM. For the same compound, the GI50 (UO-31 renal) was 958 nM, the TGI (UO-31 renal) was 2280 nM and the GI50 (SR leukemia) was 65.6 nM. It also gave a TGI (SR leukemia) of 10300 nM, a GI50 (TK-10 renal) of 2310 nM and a TGI (TK-10 renal) of 13100 nM. The GI50 (A498 renal) was 656 nM, the TGI (A498 renal) was 4550 nM and the GI50 (NCI-H460 lung) was 380 nM. It also gave a TGI (NCI-H460 lung) of 2250 nM, a GI50 (MDA-MB-435) of 56.4 nM and a TGI (MDA-MB-435) of 275 nM. For the same compound, the GI50 (CCRF-CEM leukemia) was 392 nM, the TGI (CCRF-CEM leukemia) was greater than 100000 nM and the GI50 (MDA-MB-231 breast) was 1440 nM. The TGI (MDA-MB-231 breast) was 11000 nM, the GI50 (UACC-62 melanoma) was 478 nM and the TGI (UACC-62 melanoma) was 2970 nM. It also gave a GI50 (786-0 renal) of 378 nM, a TGI (786-0 renal) of 1560 nM and a GI50 (MALME-3M melanoma) of 766 nM. It also gave a TGI (MALME-3M melanoma) of 8090 nM, a GI50 (A549 NSCLC) of 2090 nM and a TGI (A549 NSCLC) of 10400 nM. For the same compound, the GI50 (SK-MEL-28 melanoma) was 1520 nM, the TGI (SK-MEL-28 melanoma) was 7310 nM and the GI50 (UACC-257 melanoma) was 1380 nM. For the same compound, the TGI (UACC-257 melanoma) was 3050 nM, the GI50 (K-562 leukemia) was 162 nM and the TGI (K-562 leukemia) was greater than 100000 nM. It also gave a GI50 (T-47D breast) of 1060 nM, a TGI (T-47D breast) of 11800 nM and a GI50 (NCI/ADR-RES ovarian) of 273 nM. It also gave a TGI (NCI/ADR-RES ovarian) of 20000 nM, a GI50 (SNB-19 CNS) of 362 nM and a TGI (SNB-19 CNS) of 1790 nM. It also gave a GI50 (SK-OV-3 ovarian) of 2230 nM, a TGI (SK-OV-3 ovarian) of 12800 nM and a GI50 (NCI-H226 lung) of 3340 nM. It also gave a TGI (NCI-H226 lung) of 18500 nM, a GI50 (NCI-H522 lung) of 352 nM and a TGI (NCI-H522 lung) of 2060 nM. It also gave a GI50 (HCC-2998 colon) of 1570 nM, a TGI (HCC-2998 colon) of 3030 nM and a GI50 (SF-539 CNS) of 443 nM. It also gave a TGI (SF-539 CNS) of 2490 nM, a GI50 (DU-145 prostate) of 529 nM and a TGI (DU-145 prostate) of 1960 nM. It also gave a GI50 (HOP-62 NSCLC) of 1240 nM, a TGI (HOP-62 NSCLC) of 5320 nM and a GI50 (MOLT-4 leukemia) of 421 nM. For the same compound, the TGI (MOLT-4 leukemia) was 27100 nM, the GI50 (SF-295 CNS) was 529 nM and the TGI (SF-295 CNS) was 12100 nM. For the same compound, the GI50 (HCT-116 colon) was 348 nM, the TGI (HCT-116 colon) was 1480 nM and the GI50 (MCF7 breast) was 312 nM. For the same compound, the TGI (MCF7 breast) was 7480 nM, the GI50 (HT29 colon) was 293 nM and the TGI (HT29 colon) was 1370 nM. It also gave a GI50 (SF-268 CNS) of 690 nM, a TGI (SF-268 CNS) of 10500 nM and a GI50 (M14 melanoma) of 278 nM. It also gave a TGI (M14 melanoma) of 1410 nM, a GI50 (OVCAR-4 ovarian) of 4070 nM and a TGI (OVCAR-4 ovarian) of 23200 nM. The GI50 (HCT-15 colon) was 395 nM, the TGI (HCT-15 colon) was 2050 nM and the GI50 (RXF 393 renal) was 1020 nM. For the same compound, the TGI (RXF 393 renal) was 2570 nM, the GI50 (NCI-H23 lung) was 1330 nM and the TGI (NCI-H23 lung) was 3930 nM.
CCCCCCCCCCCCCCCC[N+](C)(C)Cc1ccc(F)cc1 gave a TGI (SK-MEL-2 melanoma) of 2820 nM, a TGI (IGROV1 ovarian) of 1570 nM and a TGI (EKVX NSCLC) of 6010 nM. It also gave a TGI (ACHN renal) of 10100 nM, a TGI (KM12 colon) of 2330 nM and a TGI (CAKI-1 renal) of 15600 nM. The TGI (HS 578T breast) was 3440 nM, the TGI (OVCAR-8 ovarian) was 3110 nM and the TGI (PC-3 prostate) was 2510 nM. For the same compound, the TGI (OVCAR-5 ovarian) was 3790 nM, the TGI (BT-549 breast) was 8870 nM and the TGI (OVCAR-3 ovarian) was 5490 nM. For the same compound, the TGI (UO-31 renal) was 31100 nM, the TGI (SR leukemia) was 4230 nM and the TGI (TK-10 renal) was 4800 nM. The TGI (A498 renal) was 88700 nM, the TGI (MDA-MB-435) was 3990 nM and the TGI (CCRF-CEM leukemia) was 3280 nM. The TGI (UACC-62 melanoma) was 4450 nM, the TGI (A549 NSCLC) was 11300 nM and the TGI (SK-MEL-28 melanoma) was 15100 nM. The TGI (UACC-257 melanoma) was 4920 nM, the TGI (COLO 205 colon) was 2870 nM and the TGI (T-47D breast) was 25900 nM. For the same compound, the TGI (NCI/ADR-RES ovarian) was 57100 nM, the TGI (SK-OV-3 ovarian) was 6680 nM and the TGI (NCI-H226 lung) was 9580 nM. It also gave a TGI (NCI-H522 lung) of 2030 nM, a TGI (SF-539 CNS) of 2310 nM and a TGI (DU-145 prostate) of 20800 nM. For the same compound, the TGI (SF-295 CNS) was 7690 nM, the TGI (MCF7 breast) was 3670 nM and the TGI (HT29 colon) was 5780 nM. For the same compound, the TGI (M14 melanoma) was 3050 nM, the TGI (HCT-15 colon) was 34900 nM and the TGI (NCI-H23 lung) was 14200 nM.
